{"source": "patent US10125121B2", "about": "“FYN kinase inhibitors” (ROTTAPHARM BIOTECH S.R.L., priority 2015, dated 2018)", "key": {"CFA induced hyperalgesia": {"tested_on": "CFA induced hyperalgesia", "assay": "CFA-induced inflammatory pain in rats (Randall-Selitto paw withdrawal threshold)", "assay_type": "in vivo", "conditions": "rat, 24 h after administration", "experimental": "Male Wistar rats were injected into the right hind footpad with 300 μg of Mycobacterium tuberculosis in 100 μL of liquid paraffin (Complete Freund's Adjuvant; CFA). Seventy-two hours later, compounds 2 and 26 were administered subcutaneously and 24 h after the administration, the response to noxious mechanical stimulation was assessed by measuring paw withdrawal threshold (PWT) with an analgesimeter of the Randall-Selitto type. Animals were gently restrained, and steadily increasing pressure was applied to the dorsal surface of both the ipsi-lateral (CFA-treated) and the contra-lateral paw via a dome-shaped plastic tip.\n100% protection means that the animal treated with the compound and CFA can tolerate the same stimulus (weight) as the control animal which has not received CFA treatment."}, "[1]": {"tested_on": "mechanical hyperalgesia in meniscal tear osteoarthritis", "assay": "Surgically induced meniscal tear osteoarthritis in the rat (MMT)", "assay_type": "in vivo", "conditions": "for Pain threshold / Pain threshold: MPE (%): 10 mg/kg daily orally", "excerpt": "Male Sprague Dawley rats (Charles River) approximately 350 g body weight were used. Rats were anesthetized using 2.5% isoflurane in oxygen with a flow rate of 1 I per minute. The right hind leg was shaved and surgically prepared. The medial collateral ligament was exposed and transected. The meniscus was grasped with a hemostat and reflected proximally toward the femur. The meniscus was cut through its full thickness at the narrowest point. The connective tissue layer and the skin were closed with coated Vicryl 8-0 and 4-0 silk sutures, respectively. Sham operated animals underwent an identical procedure with the exception that the medial collateral ligament was exposed but not transected. After a recovery period of 2 weeks, mechanical hyperalgesia was evaluated for the following 4 weeks, once a week, before and 90 minutes after drugs administration. Pharmacological oral treatment was performed for 28 days, starting from 14 days after surgery. After 6 weeks from surgery, rats (ten animals per group) were sacrificed and the ipsilateral knee was removed for histopathological analysis.\nThe maximum possible effect (MPE %) was calculated by the following formula: 100*(Compound−Vehicle)/(Sham−Vehicle)"}, "JB6 CI 41-5a (P+)": {"tested_on": "JB6 CI 41-5a (P+)", "assay": "Toxicity in JB6 cells (MTT method)", "assay_type": "cell-based, murine", "conditions": "3 μmolar, 24 hours of incubation", "experimental": "Cell toxicity analysis in JB6 CI 41-5a (P+) is important to determine if the results obtained in GR assay are due to the pharmacological effect or to a toxicity effect of the products.\nThe murine epithelial cell line JB6 CI 41-5a (P+) (ATCC® Cat. # CRL-2010) was used to analyze the products cell toxicity by MTT method. 10^4 cells/well were plated in a 96× well plate MEM 5%. 48 h after plating the cells were pre-treated with the different compounds and positive standards for 1 h and then stimulated with TNFα (to simulate the same experimental conditions used in the gene reporter assay) for 4 and 24 h. At the end of the incubation time, the medium was removed and was substituted with a mixture 10:1 of MEM 5% MTT (2 mg/ml) for 1 h at 37° C. in the cell incubator. MTT is a tetrazolium salt especially useful for assaying the quantification of living metabolically active cells; it works by being metabolized by mitochondrial dehydrogenases to form a formazan dye (salt). After this incubation the supernatant was removed and the precipitated salt was dissolved with 100 μl of DMSO. The plate was then read at 540 nm. 100 μl of DMSO alone (without cells) were used as a blank, that was subtracted from the measure of each sample."}, "[2]": {"tested_on": "NF-kB activation in JB6 CI 41-5a (P+) cells", "assay": "Gene reporter (GR) assay, NF-kB luciferase after TNFα stimulation", "assay_type": "cell-based, murine", "conditions": "1 h pre-treatment, 2 ng/ml TNFα for 4 h; read-out: IC50(nM) GR Inhibition", "excerpt": "To determine if the compounds of the invention were active also in a cellular model, a gene reporter assay was established in a cell line (JB6 CI 41-5a (P+)) know to activate Fyn kinase via an inflammatory stimuli (TNFα). GR assay measures the activation of the nuclear transcription factor NF-kB, situated down-stream the Fyn activation pathway. Products active in this analysis has to penetrate in the cell and inhibit the activation pathway of NF-kB.\nThe murine epithelial cell line JB6 CI 41-5a (P+) (ATCC® Cat. # CRL-2010) was stably transfected with the pGL4.32[luc2P/NFkB-RE/Hygro] vector (Promega). Clonal selection was achieved by limiting dilution in MEM (+Earle's BSS+1.5 g/l sodium bicarbonate+0.1 mM NEAA)+GlutaMAX™-I, +1 mM sodium pyruvate, +5% FBS+80 μg/ml Hygromycin B. The clones were tested for their response to TNFα stimulus. The obtained transfected cells (JB6(P+) NFkB-RE-luc2P T3-C10) contained a firefly luciferase gene (luc2P) under the control of minimal TATA promoter with multiple Nuclear Factor-kB response elements (NFkB-REs). These NFkB-REs are DNA binding sequences for the NF-kB transcription factor.\nJB6(P+) NFkB-RE-luc2P T3-C10 cells were used for the analysis of NF-kB activity modulation, after TNFα stimulation, by Fyn-inhibitors (Hwang et al.; Biochem. Pharmacol. 2009, 77 (7):1213-22).\n6000 cells/well were plated in a 96× well plate. After 24 h new medium without antibiotics was given. After further 24 h the cells were pre-treated with the different compounds for 1 h and then stimulated with 2 ng/ml TNFα for 4 h. In each experiments two positive standards were always used, and each tested condition was analyzed in quadruplicate.\nThe luciferase analysis was performed with ONE-Glo™+ToxLuciferase Reporter and Cell Viability Assay kit (Promega). This assay combined luciferase assay chemistry with a cell viability marker to better understand reporter gene expression in the context of cell health. The assay uses a two-step process. The first part of the assay was a non-lytic fluorescence assay (CellTiter-Fluor™ Cell Viability Assay) that measured the relative number of live cells in a culture population, as it measures a conserved and constitutive protease activity within live cells. The live-cell protease activity was restricted to intact viable cells and was measured using a fluorogenic, cell-permeant peptide substrate (glycyl-phenylalanyl-aminofluorocoumarin; GF-AFC). The generated fluorescent signal, proportional to the number of living cells, was measured with EnVision microplate reader (PerkinElmer) using an excitation wavelength of 400 nm and emission wavelength of 500 nm.\nThe second part of the assay uses the ONE-Glo™ Luciferase Assay System to quantify firefly luciferase reporter gene expression. The ONE-Glo™ Assay contained a fluoro-luciferin substrate, more tolerant to sample components than standard luciferase assay reagents. Luminescence was measured with EnVision microplate reader (PerkinElmer).\nCompounds of Formula (I) were tested for their capacity to penetrate into the cell and inhibit the activation pathway of NF-kB."}, "Pharmacokinetics in rats": {"assay": "Pharmacokinetics in rats", "assay_type": "in vivo, rat", "conditions": "1 mg/kg orally"}}, "data": [{"smiles": "CC(C)(C)n1nc(-c2ccc(Cl)cc2)c2c(N)ncnc21", "note": "[PP2, reference compound]", "values": [{"measurement": "% protective effect vs. CFA induced hyperalgesia", "setting": "CFA induced hyperalgesia; 3", "value": 45, "unit": "%"}, {"measurement": "% protective effect vs. CFA induced hyperalgesia", "setting": "CFA induced hyperalgesia; 10", "value": 47, "unit": "%"}, {"measurement": "Pain threshold", "setting": "[1]; day 14 post surgery", "value": 285, "unit": "g"}, {"measurement": "Pain threshold", "setting": "[1]; day 21 post surgery", "value": 278, "unit": "g"}, {"measurement": "Pain threshold: MPE (%)", "setting": "[1]; day 21 post surgery", "value": 1.8, "unit": "%"}, {"measurement": "Pain threshold", "setting": "[1]; day 28 post surgery", "value": 267, "unit": "g"}, {"measurement": "Pain threshold: MPE (%)", "setting": "[1]; day 28 post surgery", "value": 0, "unit": "%"}, {"measurement": "Pain threshold", "setting": "[1]; day 35 post surgery", "value": 262, "unit": "g"}, {"measurement": "Pain threshold: MPE (%)", "setting": "[1]; day 35 post surgery", "value": 0, "unit": "%"}, {"measurement": "Pain threshold", "setting": "[1]; day 42 post surgery", "value": 253, "unit": "g"}, {"measurement": "Pain threshold: MPE (%)", "setting": "[1]; day 42 post surgery", "value": 0, "unit": "%"}, {"measurement": "tolerability", "setting": "[1]; rat, oral, doses higher than 10 mg/kg", "value": "not tolerated"}, {"measurement": "percent residual cell vitality", "setting": "JB6 CI 41-5a (P+)", "value": 18, "unit": "%"}, {"measurement": "IC50", "setting": "[2]", "value": 505, "unit": "nM"}, {"measurement": "AUC (0-24 h)", "setting": "Pharmacokinetics in rats", "value": 160, "unit": "ng·h/mL"}]}]}
